Data published in publication PMC3983056 (PLoS Pathogens, 2014).
Several values for one entry are separate records, joined by “and”; a condition that tells them apart may be missing. Equal values may be shown once. Read-outs that look alike come from different tables or passages of the source.

Columns and labels:
[1] = test system: CD4+ T cells, CD8+ T cells and CD19+ B cells in PBMCs from HIV-infected subjects; assay: Cell activation analysis by flow cytometry, PBMC cultures; assay type: cell-based, human; settings: 4-hour pulse of 15 or 40 nM RMD, any cell subset
Experimental: HIV latency reversing agents that would be suitable for the therapeutic use in vivo should not induce non-specific immune activation.
For cell activation analysis, either complete PBMC cultures or resting CD4+ T cells isolated from HIV-infected cART-suppressed patients were incubated with the tested agents under specified conditions and were stained with relevant antibodies. All antibodies were purchased from BD Biosciences and included Alexa Fluor 700-labeled antibody to CD4, APC-H7-labeled antibody to CD8, PE-Cy7 -labeled antibody to CD19, PE-labeled antibody to CD69, APC-labeled antibody to CD25, and V450-labeled antibody to HLA-DR. Live cells were gated by forward and side scatter and exclusion of the dead cells by Live/Dead Fixable Aqua Stain (Invitrogen). Marker staining was assessed by flow cytometry analysis on a LSR Fortessa with data processing using FlowJo software.

human HDAC-9 = biological target: T1, human HDAC-9 (Homo sapiens, UniProt Q9UKV0); assay: HDAC inhibition assay; assay type: biochemical
T1 construct: purchased Reaction Biology Corporation (Malvern, PA)

[2] = Cell culture medium protein binding by equilibrium dialysis, HPLC/mass spectrometry; assay type: in vitro ADME
human HDAC-10 = biological target: T2, human HDAC-10 (Homo sapiens, UniProt Q969S8); assay: HDAC inhibition assay; assay type: biochemical
T2 construct: purchased Reaction Biology Corporation (Malvern, PA)
Experimental: (§1) Determination of HDACi potency against individual HDAC enzymes was performed at Reaction Biology Corporation (Malvern, PA). In brief, human HDAC-1 to -11 enzymes were incubated with serial dilutions of HDACi and fluorogenic peptide substrates (50 µM) in a 96-well format assay. […] Fluorogenic peptide Boc-Lys(trifluoroacetyl)-AMC was used as a substrate for HDAC enzymes 4, 5, 7, and 9.

human HDAC-4 = biological target: T3, human HDAC-4 (Homo sapiens, UniProt P56524); assay: HDAC inhibition assay; assay type: biochemical
T3 construct: purchased Reaction Biology Corporation (Malvern, PA)
Experimental: as §1

human HDAC-1 = biological target: T4, human HDAC-1 (Homo sapiens, UniProt Q13547); assay: HDAC inhibition assay; assay type: biochemical
T4 construct: purchased Reaction Biology Corporation (Malvern, PA)
Experimental: as §1

[3] = test system: latently infected primary CD4 T cells; assay: Compound-associated cytotoxicity in latently infected cells (Cell Titer Glo); assay type: cell-based, human; settings: continuous 48 hours, 50% cell viability reduction, three donors, mean ± SD
Experimental: (§2) Total peripheral blood mononuclear cells (PBMCs) were obtained from healthy HIV-negative donors by leukapheresis (AllCells, Inc, Emeryville, CA). Naive CD4+ T cells were purified by negative selection using EasySep magnetic beads (StemCells, Inc, Vancouver, Canada) and cultured in RPMI with 10% fetal bovine serum (FBS), penicillin/streptomycin, 1% nonessential amino acids (Life Technologies, Carlsbad, CA), 1% sodium pyruvate (Life Technologies) and 495 nM beta-mercaptoethanol (Sigma Aldrich, St. Louis, MO) in a 37°C, 5% CO2 incubator. Purified naive CD4+ T cells were activated by incubation with anti-CD3/CD28 magnetic Dynabeads (1 bead: 2 cells ratio, Life Technologies), 1 µg/ml anti-IL-4 (R&D Systems, Minneapolis, MN), 2 µg/ml anti-IL-12p70 antibodies (R&D Systems), and 10 ng/ml TGF-β (R&D Systems) for 3 days, [59]. Following the removal of anti-CD3/CD28 beads and antibodies, cells were maintained in 30 U/ml IL-2 (Life Technologies) for 2 days. Cells were then infected with NL4.3-Luc in the presence of 50 µg/ml DEAE for 3 hours. Cells were maintained in the continued presence of 30 U/ml IL-2 throughout the infection and subsequent rest period with culture medium with fresh IL-2 replaced every 2–3 days. Seven days post-infection, 20 µl of latently infected cells were dispensed into 384 well plates using a MicroFlo dispenser (Biotek Insturments, VT) at 10,000 cells/well containing 100 nl of compound solutions delivered by the Echo acoustic-based liquid dispenser (Labcyte, Sunnyvale, CA). After a 48-hour incubation, 16 µl/well BriteGlo (Promega, Madison, WI) was added and luminescence measured using the Envision plate reader (Perkin Elmer, Waltham, MA). Compound-associated cytotoxicity was determined in latently infected cells in parallel with the virus activation assay. Cells were incubated with compounds for 48 hours at 37°C, and cell viability was determined using Cell Titer Glo reagent (Promega).

[4] = as above; assay type: cell-based, human; settings: human, latently infected (NL4.3-Luc) primary CD4+ T cells, continuous 48 hours, 50% cell viability reduction, three donors, mean ± SD
Experimental: as §2

[5] = test system: resting CD4 T cells from cART-suppressed HIV-infected patients; assay: Cell activation analysis by flow cytometry, isolated resting CD4 T cells; assay type: cell-based, human; settings: 4-hour pulse RMD
Experimental: The surface expression of CD25 and CD69 in viable CD4 cells was analyzed by flow cytometry. Data are mean ± SD of two independent experiments performed with cells isolated from two HIV-infected patients on suppressive cART.

[6] = Human serum binding by equilibrium dialysis, HPLC/mass spectrometry; assay type: in vitro ADME; settings: read-out: Human serum binding (free fraction)
From the text: (DOCX) Click here for additional data file.

[7] = test system: latent HIV in memory CD4 T cells from HIV-infected patients on suppressive cART; settings: for HIV RNA avg: 6 days, one value per donor; for extracellular HIV RNA in culture supernatants: memory CD4 T cells
From the text: We used HIV RNA in cell culture supernatants as a surrogate marker for virion release from treated cells. We assumed that extracellular virions would accumulate over the course of several days; therefore, the duration of culture was extended to 6 days to maximize assay sensitivity.
HIV-infected patients participating in the study were selected based on sustained plasma viral load suppression (<50 copies/ml for >12 months), CD4 counts (>350 cells/µL), and absence of co-infection with hepatitis B or C virus (Supplementary Table S1). Clinical laboratory results were reconfirmed 2 weeks before leukapheresis or blood draw. Leukapheresis was conducted for 3–4 hours, and samples were processed within 2 hours after collection. The leukapheresis product was diluted 1∶1 with PBS and layered over Ficoll for isolation of PBMCs. […] Resting CD4 T cells were isolated by first enriching total CD4 T cells (StemCell Technologies) and subsequently depleting HLA-DR-, CD25-, and CD69-positive cells via negative selection (Miltenyi Biotec, Auburn, CA).
To assess HIV activation by HDACi, up to 5 million CD4 T cells were plated in 24-well plates in 2.5 ml of media, supplemented with antiretrovirals (ARVs) (100 nM elvitegravir and 100–300 nM efavirenz) for the entire duration of culture incubation. HDACi were added at specified concentrations on day 0 and cells or culture supernatants were harvested for the analysis of HIV RNA at the indicated time points (6–48 hours or 6–7 days, respectively). For HDACi pulse treatment, cultures were washed twice using ARV-containing media at 4 or 24 hours after addition of HDACi and incubated with ARVs until harvest. To measure HIV RNA levels, 1 ml of culture supernatant was analyzed by a robotic COBAS AmpliPrep/TaqMan system (Roche Diagnostics, Indianapolis, IN), which extracts total nucleic acid and quantifies HIV RNA in copies per milliliter using the HIV-1 Test, v2.0 kit (Roche Diagnostics). For the measurement of cell-associated HIV RNA levels, cells were washed with PBS, counted, and lysed (Qiagen RLT buffer, 400 µl for every 2 million cells; Qiagen, Venlo, Netherlands). Lysates were filtered through a Qiashredder (Qiagen). Total RNA was prepared from the lysates (400 µl) using a robotic system (QIAsymphony, Qiagen) that incorporates a DNase I digestion step to eliminate cellular DNA. The resulting total RNA was eluted with 200 µl of buffer, diluted to 1 ml with nuclease-free water, and analyzed by COBAS using the HIV-1 Test v2.0 kit. Preparations of both cell-associated RNA and supernatant total nucleic acids were tested for potential contamination with HIV DNA and/or host DNA by performing the PCR amplification in the presence and absence of reverse transcriptase and by a detection of GAPDH-encoding host DNA sequence.
HIV RNA-induction experiments were conducted using 5 to 6 replicates for every experimental condition, including vehicle-treated controls. Fold induction in HIV RNA levels was calculated as a ratio of mean signals from compound-treated and vehicle (DMSO)-treated control samples from the same donor under identical conditions. […] For experiments using blood-derived resting CD4 T cells, culture supernatants from 3 replicate wells were combined and analyzed using the COBAS system.

[8] = test system: HIV p24 antigen in latently infected CD4 T-cell cultures; assay: Flow cytometry analysis of p24 expression in the in vitro latency model; assay type: cell-based; settings: for cells expressing p24 antigen: 48 hours, live cell gate
Experimental: Seven days post-infection, cells infected with NL4-3-Luc virus were stimulated for 48 hours with test compounds. Cells were stained with fixable viability dye v450 (eBioscience, San Diego, CA) in phosphate buffered saline (PBS) +2% FBS for 30 minutes at 4°C. Cells were fixed with IC Fixation Buffer (eBioscience) for 20 minutes at room temperature in the dark followed by treatment with a permeabilization buffer (eBioscience) for 30 minutes at 4°C. […] The cells were analyzed on a LSR Fortessa (BD Biosciences, San Jose, CA) and collected data were processed using a FlowJo Analysis Software (TreeStar, Ashland, OR).

human HDAC-11 = biological target: T5, human HDAC-11 (Homo sapiens, UniProt Q96DB2); assay: HDAC inhibition assay; assay type: biochemical
T5 construct: purchased Reaction Biology Corporation (Malvern, PA)

human HDAC-5 = biological target: T6, human HDAC-5 (Homo sapiens, UniProt Q9UQL6); assay: HDAC inhibition assay; assay type: biochemical
T6 construct: purchased Reaction Biology Corporation (Malvern, PA)

[9] = test system: latent HIV in memory CD4 T cells from HIV-infected patients on suppressive cART; assay: Ex vivo activation of HIV transcription, cell-associated HIV RNA, memory CD4 T cells; assay type: cell-based; settings: for HIV RNA avg: Figure 2A, 40 nM RMD, one value per donor
Experimental: To examine the kinetics of HIV induction, we analyzed cell-associated viral RNA levels at 6, 12, 24, and 48 hours after treatment initiation.
Lysates were filtered through a Qiashredder (Qiagen).

T6 sequence (Q9UQL6 whole entry): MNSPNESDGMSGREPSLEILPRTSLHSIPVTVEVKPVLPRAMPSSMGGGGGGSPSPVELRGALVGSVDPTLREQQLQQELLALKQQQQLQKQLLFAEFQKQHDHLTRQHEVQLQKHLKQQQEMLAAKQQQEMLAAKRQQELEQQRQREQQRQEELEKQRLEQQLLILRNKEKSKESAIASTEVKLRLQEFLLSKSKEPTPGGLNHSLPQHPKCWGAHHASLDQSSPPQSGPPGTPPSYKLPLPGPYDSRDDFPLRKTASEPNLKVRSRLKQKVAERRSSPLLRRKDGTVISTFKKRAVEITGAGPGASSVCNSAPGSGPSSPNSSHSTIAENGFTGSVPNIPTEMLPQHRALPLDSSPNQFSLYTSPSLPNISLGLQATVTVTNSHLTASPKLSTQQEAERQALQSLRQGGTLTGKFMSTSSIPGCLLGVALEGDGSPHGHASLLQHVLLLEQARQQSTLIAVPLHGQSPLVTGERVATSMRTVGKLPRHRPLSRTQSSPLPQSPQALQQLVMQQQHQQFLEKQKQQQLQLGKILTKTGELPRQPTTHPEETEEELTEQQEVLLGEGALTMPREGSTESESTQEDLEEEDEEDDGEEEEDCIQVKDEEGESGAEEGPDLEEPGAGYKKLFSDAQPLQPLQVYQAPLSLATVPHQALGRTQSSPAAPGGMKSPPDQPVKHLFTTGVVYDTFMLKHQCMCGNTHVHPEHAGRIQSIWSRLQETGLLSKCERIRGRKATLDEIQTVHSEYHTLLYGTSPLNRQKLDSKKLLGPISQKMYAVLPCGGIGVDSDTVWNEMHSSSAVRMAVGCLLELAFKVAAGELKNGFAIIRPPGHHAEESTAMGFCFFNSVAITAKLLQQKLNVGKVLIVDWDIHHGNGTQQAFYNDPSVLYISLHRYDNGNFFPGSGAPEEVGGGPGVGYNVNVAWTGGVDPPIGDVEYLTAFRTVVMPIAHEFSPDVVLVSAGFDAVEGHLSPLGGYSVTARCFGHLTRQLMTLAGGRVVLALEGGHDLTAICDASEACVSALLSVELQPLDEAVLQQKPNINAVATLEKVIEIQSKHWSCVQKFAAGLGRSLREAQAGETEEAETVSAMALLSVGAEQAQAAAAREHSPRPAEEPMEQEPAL
T4 sequence (Q13547 whole entry): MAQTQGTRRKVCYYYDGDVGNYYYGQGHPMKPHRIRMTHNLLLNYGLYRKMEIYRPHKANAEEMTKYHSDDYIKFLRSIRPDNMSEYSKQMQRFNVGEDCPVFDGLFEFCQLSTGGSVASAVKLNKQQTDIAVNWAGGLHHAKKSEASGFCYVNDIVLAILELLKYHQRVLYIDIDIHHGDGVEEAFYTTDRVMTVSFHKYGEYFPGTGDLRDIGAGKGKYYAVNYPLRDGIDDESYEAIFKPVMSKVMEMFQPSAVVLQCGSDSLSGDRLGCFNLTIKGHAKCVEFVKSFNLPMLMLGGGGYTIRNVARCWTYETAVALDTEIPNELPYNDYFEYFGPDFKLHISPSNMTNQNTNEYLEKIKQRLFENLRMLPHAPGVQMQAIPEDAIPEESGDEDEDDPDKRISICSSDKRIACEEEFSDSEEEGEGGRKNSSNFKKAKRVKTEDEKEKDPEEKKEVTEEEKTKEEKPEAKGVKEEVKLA
T1 sequence (Q9UKV0 whole entry): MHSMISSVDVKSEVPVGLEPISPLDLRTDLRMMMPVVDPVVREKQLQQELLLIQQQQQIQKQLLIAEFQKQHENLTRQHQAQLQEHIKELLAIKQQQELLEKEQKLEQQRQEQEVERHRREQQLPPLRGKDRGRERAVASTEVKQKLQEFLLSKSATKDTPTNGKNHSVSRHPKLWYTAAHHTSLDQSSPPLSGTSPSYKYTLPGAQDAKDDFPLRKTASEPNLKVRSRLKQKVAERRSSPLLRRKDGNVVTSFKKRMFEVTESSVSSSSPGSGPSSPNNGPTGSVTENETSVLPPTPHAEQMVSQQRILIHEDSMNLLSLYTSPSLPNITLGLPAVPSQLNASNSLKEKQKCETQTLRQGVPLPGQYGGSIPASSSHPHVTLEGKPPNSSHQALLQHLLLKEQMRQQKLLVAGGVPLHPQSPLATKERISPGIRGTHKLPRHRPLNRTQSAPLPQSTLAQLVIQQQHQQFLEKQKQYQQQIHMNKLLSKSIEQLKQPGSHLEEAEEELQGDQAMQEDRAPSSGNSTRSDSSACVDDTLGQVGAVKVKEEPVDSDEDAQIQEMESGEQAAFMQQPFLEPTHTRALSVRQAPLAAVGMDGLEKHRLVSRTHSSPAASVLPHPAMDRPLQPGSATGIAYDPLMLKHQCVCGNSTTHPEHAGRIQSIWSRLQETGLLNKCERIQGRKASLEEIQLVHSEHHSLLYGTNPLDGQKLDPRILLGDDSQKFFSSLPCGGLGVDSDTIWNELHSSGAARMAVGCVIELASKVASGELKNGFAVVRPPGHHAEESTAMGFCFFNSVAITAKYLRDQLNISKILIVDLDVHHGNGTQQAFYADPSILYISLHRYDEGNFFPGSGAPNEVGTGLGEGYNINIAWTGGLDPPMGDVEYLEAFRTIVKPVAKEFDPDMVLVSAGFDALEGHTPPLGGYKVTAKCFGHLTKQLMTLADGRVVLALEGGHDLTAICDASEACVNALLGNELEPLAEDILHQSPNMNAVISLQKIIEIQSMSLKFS
T2 sequence (Q969S8 whole entry): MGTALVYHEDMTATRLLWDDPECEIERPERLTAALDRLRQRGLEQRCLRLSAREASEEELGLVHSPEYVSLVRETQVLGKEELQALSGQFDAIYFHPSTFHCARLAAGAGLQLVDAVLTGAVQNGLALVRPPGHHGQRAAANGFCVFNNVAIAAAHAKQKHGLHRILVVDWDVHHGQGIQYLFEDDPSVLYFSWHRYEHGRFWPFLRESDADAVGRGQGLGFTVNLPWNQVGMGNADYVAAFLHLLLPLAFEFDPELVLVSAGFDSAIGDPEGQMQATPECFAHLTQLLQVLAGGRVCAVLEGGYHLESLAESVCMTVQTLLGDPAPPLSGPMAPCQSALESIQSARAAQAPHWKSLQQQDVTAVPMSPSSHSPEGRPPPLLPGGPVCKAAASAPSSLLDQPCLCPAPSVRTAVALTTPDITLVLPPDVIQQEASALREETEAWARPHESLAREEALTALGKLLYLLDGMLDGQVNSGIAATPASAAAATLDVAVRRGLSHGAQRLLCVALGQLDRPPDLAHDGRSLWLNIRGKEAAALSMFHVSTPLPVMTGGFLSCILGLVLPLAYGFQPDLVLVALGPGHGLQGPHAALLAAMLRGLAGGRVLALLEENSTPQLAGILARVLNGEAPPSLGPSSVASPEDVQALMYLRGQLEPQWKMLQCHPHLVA
T3 sequence (P56524 whole entry): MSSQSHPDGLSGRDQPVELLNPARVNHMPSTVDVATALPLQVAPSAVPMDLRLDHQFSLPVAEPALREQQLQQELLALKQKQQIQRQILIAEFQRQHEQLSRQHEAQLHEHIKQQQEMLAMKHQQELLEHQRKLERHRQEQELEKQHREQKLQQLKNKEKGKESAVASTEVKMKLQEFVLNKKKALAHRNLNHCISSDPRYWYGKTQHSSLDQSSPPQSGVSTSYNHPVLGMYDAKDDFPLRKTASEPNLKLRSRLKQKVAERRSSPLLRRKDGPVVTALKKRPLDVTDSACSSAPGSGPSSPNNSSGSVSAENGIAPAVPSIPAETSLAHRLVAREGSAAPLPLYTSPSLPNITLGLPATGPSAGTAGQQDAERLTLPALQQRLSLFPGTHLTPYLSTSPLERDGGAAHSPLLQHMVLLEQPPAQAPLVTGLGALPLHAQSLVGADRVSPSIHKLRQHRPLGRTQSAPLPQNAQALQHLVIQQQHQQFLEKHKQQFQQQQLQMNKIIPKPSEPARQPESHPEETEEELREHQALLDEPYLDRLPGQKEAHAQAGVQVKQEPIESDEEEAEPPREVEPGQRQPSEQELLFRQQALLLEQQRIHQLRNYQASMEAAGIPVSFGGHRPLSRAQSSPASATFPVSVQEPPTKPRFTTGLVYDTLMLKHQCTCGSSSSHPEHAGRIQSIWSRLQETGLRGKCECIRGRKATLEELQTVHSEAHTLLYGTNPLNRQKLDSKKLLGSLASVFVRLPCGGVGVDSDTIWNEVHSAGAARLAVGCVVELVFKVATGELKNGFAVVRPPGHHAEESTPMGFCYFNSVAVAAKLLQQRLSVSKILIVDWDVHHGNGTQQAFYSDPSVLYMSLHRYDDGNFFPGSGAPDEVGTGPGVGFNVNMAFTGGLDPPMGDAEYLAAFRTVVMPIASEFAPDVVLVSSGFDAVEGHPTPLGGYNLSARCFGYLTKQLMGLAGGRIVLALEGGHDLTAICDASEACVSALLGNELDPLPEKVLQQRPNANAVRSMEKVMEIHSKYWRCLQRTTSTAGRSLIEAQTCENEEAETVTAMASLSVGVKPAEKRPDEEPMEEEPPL
T5 sequence (Q96DB2 whole entry): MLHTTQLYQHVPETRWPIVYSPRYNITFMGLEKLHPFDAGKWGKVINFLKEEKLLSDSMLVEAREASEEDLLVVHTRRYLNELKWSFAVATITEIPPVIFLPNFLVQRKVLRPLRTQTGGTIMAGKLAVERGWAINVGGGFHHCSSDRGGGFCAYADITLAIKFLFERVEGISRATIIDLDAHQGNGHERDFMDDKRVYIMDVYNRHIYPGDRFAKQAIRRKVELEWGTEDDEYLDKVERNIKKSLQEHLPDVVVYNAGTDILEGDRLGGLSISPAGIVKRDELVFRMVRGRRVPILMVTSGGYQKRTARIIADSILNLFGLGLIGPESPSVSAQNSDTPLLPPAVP

C/C=C1\NC(=O)[C@H]2CSSCC/C=C/[C@H](CC(=O)N[C@H](C(C)C)C(=O)N2)OC(=O)[C@H](C(C)C)NC1=O [RMD, romidepsin]
expression of CD25 or HLA-DR [1]: did not lead to any changes | IC50 (human HDAC-9): 8910 nM | Free drug concentration, ex vivo cell culture exposure ([2]; RMD 40 nM, VOR 1,000 nM in culture): 22 nM | fraction unbound ([2]; cell culture medium, equilibrium dialysis, read-out: Cell culture medium protein binding (free fraction)): 0.55 | IC50 (human HDAC-10): 0.133 nM | IC50 (human HDAC-4): 314 nM | IC50 (human HDAC-1): 0.102 nM | CC50 [3]: 107 ± 126 nM | CC50 at 48 h [4]: 100 nM | fraction of CD69-positive cells [5]: minimal increases | fraction unbound [6]: 0.08 | HIV RNA avg ([7]; Figure 3A, 5 nM RMD): 1476 copies/mil cells and 10908 copies/mil cells and 138 copies/mil cells and 222 copies/mil cells and 322 copies/mil cells and 41.9 copies/mil cells and 73 copies/mil cells and 313.5 copies/mil cells | HIV RNA avg ([7]; Figure 3A, 20 nM RMD): 68 copies/mil cells and 712 copies/mil cells and 1346 copies/mil cells and 3086 copies/mil cells and 1361 copies/mil cells and 157 copies/mil cells and 732 copies/mil cells and 4776 copies/mil cells | HIV RNA avg ([7]; Figure 3B, 5 nM RMD): 1032 copies/mil cells and 1674 copies/mil cells and 1740 copies/mil cells and 1435 copies/mil cells and 1299 copies/mil cells and 1832 copies/mil cells and 6659 copies/mil cells and 1420 copies/mil cells and 8934 copies/mil cells and 205 copies/mil cells and 148 copies/mil cells and 1219 copies/mil cells | High-responding patient; HIV RNA [copies/mL] ([7]; Figure 7, 0.093nM RMD, donor 29, experiments 1-3): 34 copies/mL and 36 copies/mL and 64 copies/mL | Low-responding patient; HIV RNA [copies/mL] ([7]; Figure 7, 0.093nM RMD, donor 33, experiments 1-3): 20 copies/mL and 28 copies/mL | extracellular HIV RNA in culture supernatants ([7]; 5 nM RMD continuous 6 days): detection of extracellular HIV RNA in memory CD4 T-cell cultures from the majority of tested donors | extracellular HIV RNA in culture supernatants ([7]; 5 and 20 nM RMD for 4 hours, day 6): increased extracellular HIV RNA | cells expressing p24 antigen ([8]; 5 nM RMD): 3.3% | cells expressing p24 antigen ([8]; 80 nM RMD): 5.5% | time course of p24 expression ([8]; 24 to 72 hours, 40 nM RMD or anti-CD3/CD28 antibodies, in presence of antiretrovirals): continued to increase for 72 hours | IC50 (human HDAC-11): 0.407 nM | IC50 (human HDAC-5): 1160 nM | HIV RNA avg ([9]; 6hr): 164 copies/mil cells and 924 copies/mil cells and 4345 copies/mil cells and 5330 copies/mil cells and 714 copies/mil cells | HIV RNA avg ([9]; 12hr): 222 copies/mil cells and 562 copies/mil cells and 5634 copies/mil cells and 3147 copies/mil cells and 922 copies/mil cells | HIV RNA avg ([9]; 24hr): 702 copies/mil cells and 1193 copies/mil cells and 7541 copies/mil cells and 2530 copies/mil cells and 1320 copies/mil cells | HIV RNA avg ([9]; 48hr): 2153 copies/mil cells and 3839 copies/mil cells and 30568 copies/mil cells and 3060 copies/mil cells and 1406 copies/mil cells | increase in intracellular HIV RNA levels versus vehicle ([9]; memory CD4 T cells, 40 nM RMD for 4 hours, peak between 24 and 48 hours): 6 fold
